{"source": "patent US20120115842A1", "about": "(priority 2004, published 2012)", "biological_target": "T1, human vasopressin V1b receptor (Homo sapiens, UniProt P47901)", "T1 construct": "expressed in transfected cells; host or cells: CHO-K1 (cell line hV1b-3H2_CHO), membranes", "T1 sequence (P47901 1-424)": "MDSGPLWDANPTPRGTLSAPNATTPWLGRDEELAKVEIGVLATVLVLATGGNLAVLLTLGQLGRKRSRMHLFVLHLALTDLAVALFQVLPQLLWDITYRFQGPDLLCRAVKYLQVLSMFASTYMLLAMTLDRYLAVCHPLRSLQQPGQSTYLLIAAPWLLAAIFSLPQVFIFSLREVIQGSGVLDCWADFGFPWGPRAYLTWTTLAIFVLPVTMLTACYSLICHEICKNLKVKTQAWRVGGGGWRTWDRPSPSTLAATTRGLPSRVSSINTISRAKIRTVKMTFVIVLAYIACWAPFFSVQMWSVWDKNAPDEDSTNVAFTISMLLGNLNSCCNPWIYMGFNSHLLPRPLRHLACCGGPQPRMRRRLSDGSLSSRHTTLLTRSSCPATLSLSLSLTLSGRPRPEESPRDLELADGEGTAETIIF", "test": "Vasopressin V1b receptor binding assay (3H-AVP displacement)", "conditions": "for Ki: membranes from CHO-K1 cells with stably expressed human V1b receptors, 1.5 nM 3H-AVP, read-out: affinity constants (Ki) for the human vasopressin V1b receptor; for selectivity vis-a-vis V1b by comparison with V1a, V2 and/or OT: quotient of Ki values: Ki(V1a)/Ki(V1b), Ki(V2)/Ki(V1b) and/or Ki(OT)/Ki(V1b)", "procedure": "The test substances were dissolved in a concentration of 10^−2 M in DMSO and further diluted to 5×10^−4 M to 5×10^−9 M in DMSO. These DMSO solutions were diluted 1:10 with assay buffer. The substance concentration was again diluted 1:5 in the assay mixture.\nCHO-K1 cells with stably expressed human vasopressin V1b receptor (clone 3H2) were harvested and homogenized in 50 mM Tris-HCl and in the presence of protease inhibitors (Roche complete Mini #1836170) with a Polytron homogenizer at a medium setting for 2×10 seconds and subsequently centrifuged at 40 000×g for 1 h. The membrane pellet was again homogenized and centrifuged as described and then taken up in 50 mM Tris-HCl, pH 7.4, homogenized and stored in aliquots frozen in liquid nitrogen at −190° C.\nThe binding assay was carried out by a method based on that of Tahara et al. (Tahara A et al., Brit. J. Pharmacol. 125, 1463-1470 (1998)). The incubation buffer was: 50 mM Tris, 10 mM MgCl2, 0.1% BSA, pH 7.4.\nIn the assay mixture (250 μl), membranes (50 μg/ml protein in incubation buffer) from CHO-K1 cells with stably expressed human V1b receptors (cell line hV1b—3H2_CHO) were incubated with 1.5 nM ^3H-AVP (8-Arg-vasopressin, PerkinElmer #18479) in incubation buffer (50 mM Tris, 10 mM MgCl2, 0.1% BSA, pH 7.4) (total binding) or additionally with increasing concentrations of test substance (displacement experiment). The nonspecific binding was determined with 1 uM AVP (Bachem # H1780). All determinations were carried out as triplicate determinations. After incubation (60 minutes at room temperature), the free radioligand was removed by vacuum filtration (Skatron cell harvester 7000) through Wathman G F/B glass fiber filter mats, and the filters were transferred into scintillation vials. The liquid scintillation measurement took place in a Tricarb model 2000 or 2200CA instrument (Packard). Conversion of the measured cpm into dpm was carried out with the aid of a standard quench series.\nThe binding parameters were calculated by nonlinear regression in SAS. The algorithms of the program operate in analogy to the LIGAND analysis program (Munson P J and Rodbard D, Analytical Biochem. 107, 220-239 (1980)). The Kd of ^3H-AVP for the recombinant […] receptors is 0.4 nM and was used to determine the Ki value.", "data": [{"compound": "COc1ccc(S(=O)(=O)N2C(=O)C(c3ccccc3OC)(N(C)[C@@H](C)C(=O)N(C)C)c3cc(C#N)ccc32)cc1", "note": "(mixture of isomers) [Example 15]", "values": [{"measurement": "Ki", "value": "< 100", "unit": "nM"}, {"measurement": "selectivity vis-a-vis V1b by comparison with V1a, V2 and/or OT", "value": "improved selectivity"}]}, {"compound": "COc1ccc(S(=O)(=O)N2C(=O)C(c3ccccc3OC)(N3CC(O)CC3C(=O)N(C)C)c3cc(C#N)ccc32)c(OC)c1", "note": "(single isomer, unassigned) [Example 1]", "values": [{"measurement": "Ki", "value": "< 100", "unit": "nM"}, {"measurement": "selectivity vis-a-vis V1b by comparison with V1a, V2 and/or OT", "value": "improved selectivity"}]}, {"compound": "COc1ccc(S(=O)(=O)N2C(=O)C(c3ccccc3OC)(N3CC(O)CC3C(=O)N(C)C)c3cc(C#N)ccc32)c(OC)c1", "note": "(single isomer, unassigned; (+)) [Example 16]", "values": [{"measurement": "selectivity vis-a-vis V1b by comparison with V1a, V2 and/or OT", "value": "improved selectivity"}]}, {"compound": "COc1ccc(S(=O)(=O)N2C(=O)C(c3ccccc3OC)(N3CCC[C@H]3C(=O)N(C)C)c3cc(C#N)ccc32)cc1", "note": "(single isomer, unassigned; (+)) [Example 17b]", "values": [{"measurement": "Ki", "value": "< 100", "unit": "nM"}, {"measurement": "selectivity vis-a-vis V1b by comparison with V1a, V2 and/or OT", "value": "improved selectivity"}]}, {"compound": "COc1ccc(S(=O)(=O)N2C(=O)C(c3ccccc3OC)(N3C[C@H](O)C[C@H]3C(=O)N(C)C)c3cc(C#N)ccc32)cc1", "note": "(stereo partly drawn) [Example 19, (−)-(2S,4R)-1-[5-Cyano-1-(4-methoxybenzenesulfonyl)-3-(2-methoxyphenyl)-2-oxo-2,3-dihydro-1H-indol-3-yl]-4-hydroxypyrrolidine-2-dimethylcarboxamide]", "values": [{"measurement": "Ki", "value": "< 100", "unit": "nM"}, {"measurement": "selectivity vis-a-vis V1b by comparison with V1a, V2 and/or OT", "value": "improved selectivity"}]}]}
